Laboratory results as given in patent US6235786A, “Reverse hydroxamate inhibitors of matrix metalloproteinases” (Abbott Laboratories, priority 2000, dated 2001).

Target: T1, stromelysin (Homo sapiens, UniProt P08254)
T1 construct: made in house; host or cells: E. coli
Experiment: Determination of Stromelysin Inhibition (cleavage of thiopeptide ester substrate, DTNB, 405 nm)
Assay type: biochemical
Conditions: Table 1; recombinant truncated human stromelysin, pH 6.5, 30 minute assay at ambient temperature
Experimental: The efficacy of the compounds of this invention as matrix metalloproteinase inhibitors was determined by measuring the inhibition of stromelysin. The inhibition of stromelysin by the compounds of this invention was determined as follows: Recombinant truncated stromelysin (human sequence) produced in E. coli was prepared by expression and purification of the protein as described by Ye et al. (Biochemistry, 1992, 31, 11231-11235, which is incorporated herein by reference). The enzyme was assayed by its cleavage of the thiopeptide ester substrate Ac-Pro-Leu-Gly-(2-mercapto-4-methyl-pentanoyl)-Leu-Gly-OEt as described by Weingarten and Feder (Anal. Biochem., 1985, 147, 437-440 (1985), which is incorporated herein by reference) as a substrate of vertebrate collagenase. The reported conditions were modified to allow assays to be carried out in a microtiter plate. Upon hydrolysis of the thioester bond, the released thiol group reacted rapidly with 5,5'-dithio-bis(2-nitrobenzoic acid) (DTNB) to produce a yellow color which was measured by a microtiter plate reader set at 405 nm. The rates of cleavage of the substrate by stromelysin in the presence or absence of inhibitors were measured in a 30 minute assay at ambient temperature. Solutions of the compounds in DMSO were prepared, and these were diluted at various concentrations into the assay buffer (50 mM MES/NaOH pH 6.5 with 10 mM CaCl2 and 0.2% Pluronic F-68), which was also used for dilution of the enzyme and substrate. The potency of the compounds (IC50) was calculated from the inhibition/inhibitor concentration data.

T1 sequence (P08254 100-272 limits assumed): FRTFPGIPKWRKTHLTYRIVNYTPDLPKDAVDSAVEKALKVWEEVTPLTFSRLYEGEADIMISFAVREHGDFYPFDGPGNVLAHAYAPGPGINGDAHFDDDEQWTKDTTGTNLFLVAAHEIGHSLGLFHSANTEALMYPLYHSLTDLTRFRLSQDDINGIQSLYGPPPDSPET

Row | Compound | IC50 [nM]
1 | CC(CCS(=O)(=O)c1ccc(Oc2ccccc2)cc1)N(O)C=O (racemic) [Example 120, (±)-N-hydroxy-N-(1-methyl-3-((4-phenoxyphenyl)sulfonyl)propyl)formamide] | 4.3
2 | CC(CCS(=O)(=O)c1ccc(Oc2ccc(OC(F)(F)F)cc2)cc1)N(O)C=O (racemic) [Example 121, (±)-N-hydroxy-N-(1-methyl-3-((4-(4-(trifluoromethoxy)phenoxy)phenyl)-sulfonyl)propyl)formamide] | 130
3 | CC1(C)NC(=O)N(C[C@@H](CCS(=O)(=O)c2ccc(Oc3ccccc3)cc2)N(O)C=O)C1=O [Example 123, (R)-N-(1-((4,4-dimethyl-2,5-dioxo-1-imidazolidinyl)methyl)-3-((4-phenoxyphenyl)sulfonyl)propyl)-N-hydroxyformamide] | 270

Target: T2, gelatinase-A (MMP-2) (Homo sapiens, UniProt P08253)
T2 construct: Recombinant active gelatinase-A (MMP-2) is purchased from Oncogene Research; purchased Oncogene Research
T2 sequence (P08253 110-660): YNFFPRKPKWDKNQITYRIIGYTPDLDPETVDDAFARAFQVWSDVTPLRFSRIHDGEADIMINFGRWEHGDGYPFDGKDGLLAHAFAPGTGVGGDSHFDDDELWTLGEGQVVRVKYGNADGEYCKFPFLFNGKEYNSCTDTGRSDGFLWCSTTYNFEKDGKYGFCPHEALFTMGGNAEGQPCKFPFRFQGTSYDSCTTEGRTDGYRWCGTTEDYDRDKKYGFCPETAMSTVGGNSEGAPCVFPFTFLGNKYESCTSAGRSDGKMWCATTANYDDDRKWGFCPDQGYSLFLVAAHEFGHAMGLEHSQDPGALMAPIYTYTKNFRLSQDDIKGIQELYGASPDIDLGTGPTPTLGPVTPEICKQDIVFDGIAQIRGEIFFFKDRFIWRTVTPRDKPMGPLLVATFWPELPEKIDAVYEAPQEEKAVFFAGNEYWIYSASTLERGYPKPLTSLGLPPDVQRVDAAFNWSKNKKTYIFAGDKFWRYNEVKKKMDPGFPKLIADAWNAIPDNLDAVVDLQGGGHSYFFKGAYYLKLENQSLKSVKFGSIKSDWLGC
Experiment: Inhibition of Gelatinase A (MMP-2), cleavage of a fluorescent substrate
Assay type: biochemical
Conditions: Table 2; recombinant active gelatinase-A (MMP-2), pH 7.4, 40 min assay at ambient temperature
Experimental: The efficacy of the compounds of this invention as matrix metalloproteinase inhibitors was also determined by measuring inhibition as outlined below for Gelatinase A, a member of this family of enzymes. Recombinant active gelatinase-A (MMP-2) is purchased from Oncogene Research. The enzyme is assayed by its cleavage of a fluorescent […] 150 uL volume in a microfluor plate as described in Science 1990, 247, 954-958. Upon cleavage of the substrate, the fluorescence of the EDANS group is increased 30-fold, and this increase is monitored using a f-max (Molecular Devices) fluorescent plate reader (ex: 335 nm; em: 485 nm). The rates of cleavage of the substrate by gelatinase-A in the presence or absence of inhibitors are measured in a 40 min assay at ambient temperature. Stock solutions of the compounds in DMSO are prepared, and these solutions are diluted into the assay buffer (50 mM Tris HCl, pH 7.4, with 150 mM NaCl and 10 mM CaCl2), which is also used for dilution of the enzyme and substrate.

Row | Compound | IC50 [nM]
4 | O=CN(O)C1CCCCC1CS(=O)(=O)c1ccc(Oc2ccc(F)cc2)cc1 (racemic) [Example 134, (±)-2-(((4-(4-fluorophenoxy)phenyl)sulfonyl)methyl)cyclohexyl(hydroxy)formamide] | 120
5 | CC(C)(CN(O)C=O)CS(=O)(=O)c1ccc(Oc2ccccc2)cc1 [Example 129, 2,2-dimethyl-3-((4-phenoxyphenyl)sulfonyl)propyl(hydroxy)formamide] | 4.3
6 | CC(C)(CN(O)C=O)CS(=O)(=O)c1ccc(Oc2ccc(OC(F)(F)F)cc2)cc1 [Example 131, 2,2-dimethyl-3-((4-(4-(trifluoromethoxy)phenoxy)phenyl)sulfonyl)propyl(hydroxy)formamide] | 4.9
7 | O=CN(O)CC1(CS(=O)(=O)c2ccc(Oc3ccc(OC(F)(F)F)cc3)cc2)COCOC1 [Example 135, Hydroxy((5-(((4-(4-(trifluoromethoxy)phenoxy)phenyl)sulfonyl)methyl)-1,3-dioxan-5-yl)methyl)formamide] | 0.6

Other lines, results leading:

Row | IC50 [nM] | Compound
8 | 12 | CC1(C)NC(=O)N(C[C@@H](CCS(=O)(=O)c2ccc(Oc3ccc(Cl)cc3)cc2)N(O)C=O)C1=O [Example 130]
9 | 15 | CN1C(=O)N(C[C@@H](CCS(=O)(=O)c2ccc(Oc3ccc(F)cc3)cc2)N(O)C=O)C(=O)C1(C)C [Example 132, (1R)-3-((4-(4-fluorophenoxy)phenyl)sulfonyl)-1-((3,4,4-trimethyl-2,5-dioxo-1-imidazolidinyl)methyl)propyl(hydroxy)formamide]
